Data as given in publication PMC10786919, “Design-rules for stapled peptides with in vivo activity and their application to Mdm2/X antagonists” (Nature Communications, 2024).
pEC50: −log10 of the molar value. Read-outs that look alike come from different tables or passages of the source. Positions of bridges follow the written chain, without caps; N, C: chain ends. Non-standard residues stand in square brackets, D forms with d. Residues, ends and D or L forms follow the SMILES beside them. dPhe(4-CF3) = N[C@H](Cc1ccc(C(F)(F)F)cc1)C(=O)O; dTrp(6-F) = N[C@H](Cc1c[nH]c2cc(F)ccc12)C(=O)O; Lys(N3) = [N-]=[N+]=NCCCC[C@H](N)C(=O)O; R8 = C=CCCCCCC[C@@](C)(N)C(=O)O; Cba = N[C@@H](CC1CCC1)C(=O)O; R5 = C=CCCC[C@@](C)(N)C(=O)O; S5 = C=CCCC[C@](C)(N)C(=O)O; βAla = NCCC(=O)O

Assays:
[1] = Lactate dehydrogenase (LDH) release assay; type: cell-based
Outline: (§1)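 Geometric means of at least three independent biological runs are given for LDH release measured in HCT116 cells stably expressing a p53-driven β-lactamase reporter. Plating density was 8000 cells/well; DMSO in wells was 0.5%.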

[2] = tested on: HCT116 cells; test: Lactate dehydrogenase (LDH) release assay; type: cell-based
Outline: as §1

[3] = Circular dichroism (CD) helicity; type: physicochemical
Protocol: A total of 5 µL of the 10 mM stock peptide was mixed with 45 µL of 100% methanol, and dried for 2 h in the SpeedVac concentrator (Thermo Scientific). The dried peptide was reconstituted in a buffer (1 mM Hepes pH 7.4 and 5% methanol) to a concentration of 1 mM. The peptide sample was placed in a quartz cuvette with a path length of 0.2 cm. The peptide concentration was determined by the absorbance of the peptide at […]. The CD spectrum was recorded from 300 to 190 nm using the Chirascan-plus qCD machine (Applied Photophysics, Surrey, UK), at 25 °C. All experiments were done in duplicates. The CD spectrum was converted to mean residue ellipticity before deconvolution and estimation of the secondary structure components of the peptide using the CDNN software (distributed by Applied Photophysics). Measurements were taken at least twice and were reported as arithmetic means.

[4] = physchem
[5] = Nanoclick permeability assay
Outline: (§2)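 Azido-peptide permeability was read as loss of NanoBRET signal (donor 450 nm, acceptor 610 nm) after adding NanoBret618-azide at 10 μM final.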

[6] = tested on: cells transiently transfected with the NanoLuc-HaloTag vector; test: Nanoclick permeability assay; settings: 4Hr
Outline: as §2

[7] = physchem; remark: listed apart in the source
[8] = Experimental LogD (partition coefficient); settings: for logD: not stated, Partition Coeff LogD
[9] = physchem; remark: listed apart in the source
[10] = 0% FBS 4Hr, read-out: LDH: Cytotoxicity assay EC50
[11] = 10% FBS 16Hr, read-out: LDH: Cytotoxicity assay EC50
[12] = 4 hours, 0% serum, read-out: LDH Cytotoxicity assay EC50
[13] = Nanoclick permeability assay EC50
[14] = 0% FBS 4Hr, read-out: LDH: Cytotoxicity assay: EC50

Structure (SMILES) | pEC50 [1, 10] | pEC50 [1, 11] | LDH: Cytotoxicity assay % Effect ([2]; 0% FBS 4Hr) [%] | LDH: Cytotoxicity assay % Effect ([2]; 10% FBS 16Hr) [%] | CD % Helicity [3] [%] | EPSA [4] [A^2] | cell entry EC50 [5] [µM] | Nanoclick permeability assay % Effect [6] [%] | pEC50 ([1]; LDH: Cytotoxicity assay EC50) | logD [8] | other results
CC(=O)N[C@@H](C(=O)N[C@H](C)C(=O)N[C@H](Cc1c[nH]c2cc(F)ccc12)C(=O)N[C@H](Cc1ccc(O)cc1)C(=O)N[C@H](C)C(=O)N[C@]1(C)CCCC=CCCC[C@](C)(C(=O)N[C@H](CC(C)C)C(=O)N[C@H](CO)C(=O)N[C@H](C)C(=O)N[C@H](C)C(=O)N[C@H](C)C(=O)N[C@H](C)C(=O)N[C@H](C)C(=O)N[C@H](C)C(=O)N[C@H](C)C(=O)N[C@H](C)C(=O)N[C@H](C)C(N)=O)NC(=O)[C@@H](CCC(N)=O)NC(=O)[C@@H](CCC(=O)O)NC(=O)[C@@H](Cc2ccc(C(F)(F)F)cc2)NC1=O)[C@H](C)O [MP-1230] (Ac-[dT][dA][dTrp(6-F)][dY][dA][R5][dPhe(4-CF3)][dE][dQ][R5][dL][dS][dA][dA][dA][dA][dA][dA][dA][dA][dA]-NH2; staple 6-10) | < 4.29 | < 4.29 | 4.322 | -2.735 | 8.3 | 190 |  |  |  |  | 
CC(=O)N[C@@H](C(=O)N[C@H](C)C(=O)N[C@H](Cc1c[nH]c2cc(F)ccc12)C(=O)N[C@H](Cc1ccc(O)cc1)C(=O)N[C@H](C)C(=O)N[C@]1(C)CCCC=CCCC[C@](C)(C(=O)N[C@H](CC(C)C)C(=O)N[C@H](CO)C(N)=O)NC(=O)[C@@H](CCC(N)=O)NC(=O)[C@@H](CCC(=O)O)NC(=O)[C@@H](Cc2ccc(C(F)(F)F)cc2)NC1=O)[C@H](C)O [MP-797] (Ac-[dT][dA][dTrp(6-F)][dY][dA][R5][dPhe(4-CF3)][dE][dQ][R5][dL][dS]-NH2; staple 6-10) | < 4.29 | < 4.29 | 33.6 | 29.91 | 26.6 | 198 | > 10 | 69.79 |  |  | pEC50 [1, 12]: < 4.30
CC(=O)N[C@@H](C(=O)N[C@H](C)C(=O)N[C@H](Cc1c[nH]c2cc(F)ccc12)C(=O)N[C@H](Cc1ccc(O)cc1)C(=O)N[C@H](C)C(=O)N[C@]1(C)CCCC=CCCC[C@](C)(C(=O)N[C@H](CC(C)C)C(=O)N[C@H](CO)C(=O)N[C@H](C)C(=O)N[C@H](C)C(=O)N[C@H](C)C(N)=O)NC(=O)[C@@H](CCC(N)=O)NC(=O)[C@@H](CCC(=O)O)NC(=O)[C@@H](Cc2ccc(C(F)(F)F)cc2)NC1=O)[C@H](C)O [MP-0230] (Ac-[dT][dA][dTrp(6-F)][dY][dA][R5][dPhe(4-CF3)][dE][dQ][R5][dL][dS][dA][dA][dA]-NH2; staple 6-10) |  |  |  |  | 49.95 | 190 |  | 30.67 | < 4.29 |  | cell entry EC50 [5, 13]: > 10 µM
CC(=O)N[C@@H](CCCCN=[N+]=[N-])C(=O)NCCC(=O)N[C@@H](CC(C)C)C(=O)N[C@H](C(=O)N[C@@H](Cc1ccccc1)C(=O)N[C@]1(C)CCCCCCC=CCCC[C@@](C)(C(=O)N[C@@H](CO)C(=O)N[C@@H](C)C(=O)N[C@@H](C)C(N)=O)NC(=O)[C@H](CC2CCC2)NC(=O)[C@H](CCC(N)=O)NC(=O)[C@H](C)NC(=O)[C@H](Cc2c[nH]c3ccccc23)NC(=O)[C@H](Cc2ccc(O)cc2)NC(=O)[C@H](Cc2c[nH]c3ccccc23)NC1=O)[C@@H](C)O [MP-185] (Ac-[Lys(N3)][βAla]LTF[R8]WYWAQ[Cba][S5]SAA-NH2; staple 6-13) |  |  |  |  |  |  |  | 140.4 | < 4.30 | 4 | cell entry EC50 [5, 13]: 0.0774 µM; EPSA [7]: 226 A^2
CC(=O)N[C@@H](CC(C)C)C(=O)N[C@H](C(=O)N[C@@H](Cc1ccccc1)C(=O)N[C@]1(C)CCCCCCC=CCCC[C@@](C)(C(=O)N[C@@H](CO)C(=O)N[C@@H](C)C(=O)N[C@@H](C)C(N)=O)NC(=O)[C@@H](CC2CCC2)NC(=O)[C@H](CC(C)C)NC(=O)[C@H](CCC(N)=O)NC(=O)[C@H](Cc2c[nH]c3ccccc23)NC(=O)[C@H](Cc2ccc(O)cc2)NC(=O)[C@H](CCC(=O)O)NC1=O)[C@@H](C)O [MP-009] |  |  |  |  | 23.85 |  |  | 22.02 | < 4.29 | 2.7 | EPSA [7]: 204 A^2
CC(=O)N[C@@H](C(=O)N[C@H](C)C(=O)N[C@H](Cc1c[nH]c2cc(F)ccc12)C(=O)N[C@H](Cc1ccc(O)cc1)C(=O)N[C@H](C)C(=O)N[C@]1(C)CCCC=CCCC[C@](C)(C(=O)N[C@H](CC(C)C)C(=O)N[C@H](CO)C(=O)N[C@H](C)C(=O)N[C@H](C)C(=O)N[C@H](C)C(=O)N[C@H](C)C(=O)N[C@H](C)C(=O)N[C@H](C)C(N)=O)NC(=O)[C@@H](CCC(N)=O)NC(=O)[C@@H](CCC(=O)O)NC(=O)[C@@H](Cc2ccc(C(F)(F)F)cc2)NC1=O)[C@H](C)O [MP-042] (Ac-[dT][dA][dTrp(6-F)][dY][dA][R5][dPhe(4-CF3)][dE][dQ][R5][dL][dS][dA][dA][dA][dA][dA][dA]-NH2; staple 6-10) | < 4.29 | < 4.29 | 8.154 | 15.87 | 57.4 |  | > 10 | 1.941 |  |  | pEC50 [1, 12]: < 4.30
CC(=O)N[C@@H](CCCCN=[N+]=[N-])C(=O)NCCC(=O)N[C@@H](CC(C)C)C(=O)N[C@H](C(=O)N[C@@H](Cc1ccccc1)C(=O)N[C@]1(C)CCCCCCC=CCCC[C@@](C)(C(=O)N2CCC[C@@H]2C(=O)N2CCC[C@@H]2C(=O)N2CCC[C@@H]2C(=O)N2CCC[C@@H]2C(=O)N2CCC[C@@H]2C(=O)N2CCC[C@@H]2C(N)=O)NC(=O)[C@H](CC2CCC2)NC(=O)[C@H](CCC(N)=O)NC(=O)[C@H](C)NC(=O)[C@H](Cc2c[nH]c3ccccc23)NC(=O)[C@H](Cc2ccc(O)cc2)NC(=O)[C@H](CCC(=O)O)NC1=O)[C@@H](C)O [MP-896] |  |  |  |  | 19.15 |  | 1.42 | 114.3 |  |  | pEC50 [1, 14]: < 4.29; pEC50 ([1]; 10% FBS 16Hr, read-out: LDH: Cytotoxicity assay: EC50): < 4.29; LDH: Cytotoxicity assay: % Effect ([2]; 0% FBS 4Hr): -5.717%; LDH: Cytotoxicity assay: % Effect ([2]; 10% FBS 16Hr): 1.172%; Aqueous solution helicity ([3]; circular dichroism): 19.15%; Partition Coeff LogD [8]: Poorly Behaved
CC(C)C[C@@H](NC(=O)[C@@]1(C)CCCC=CCCC[C@@](C)(NC(=O)[C@@H](C)NC(=O)[C@@H](Cc2ccc(O)cc2)NC(=O)[C@@H](Cc2c[nH]c3cc(F)ccc23)NC(=O)[C@@H](C)NC(=O)[C@H](N)[C@H](C)O)C(=O)N[C@H](Cc2ccc(C(F)(F)F)cc2)C(=O)N[C@H](CCC(=O)O)C(=O)N[C@H](CCC(N)=O)C(=O)N1)C(=O)N[C@H](CO)C(N)=O [MP-795] (H-[dT][dA][dTrp(6-F)][dY][dA][R5][dPhe(4-CF3)][dE][dQ][R5][dL][dS]-NH2; staple 6-10) | < 4.29 | < 4.29 | 13.17 | 16.65 |  | 234 | > 10 | 23.68 |  | 2.32 | 
CC(=O)N[C@@H](CCCCN=[N+]=[N-])C(=O)NCCC(=O)N[C@@H](CC(N)=O)C(=O)N[C@H](C(=O)N[C@@H](Cc1ccccc1)C(=O)N[C@]1(C)CCCCCCC=CCCC[C@@](C)(C(=O)N[C@@H](CC(N)=O)C(=O)N[C@@H](CC(N)=O)C(=O)N[C@@H](CC(N)=O)C(N)=O)NC(=O)[C@H](CC2CCC2)NC(=O)[C@H](CCC(N)=O)NC(=O)[C@H](CC(N)=O)NC(=O)[C@H](Cc2c[nH]c3ccccc23)NC(=O)[C@H](Cc2ccc(O)cc2)NC(=O)[C@H](CC(N)=O)NC1=O)[C@@H](C)O [MP-359, azide-ATSP-7041 (L1N, E5N, A8N, S12N, A13N, A14N)] (Ac-[Lys(N3)][βAla]NTF[R8]NYWNQ[Cba][S5]NNN-NH2; staple 6-13) |  |  |  |  | 39.55 |  | 0.38 | 112.9 |  | 2.12 | pEC50 [1, 14]: < 4.30; LDH: Cytotoxicity assay: % Effect ([2]; 0% FBS 4Hr): -2.842%; EPSA [9]: 238 A^2
